Assay results from the NIST ThermoML archive (doi:10.1016/j.jct.2016.02.007).

Experiment: wn = mass fraction of the nth substance listed
Details: 101.3 kPa, Liquid, Vibrating tube method

CN(C)CCCO [3-dimethylamino-1-propanol] + O
mass density [kg/m3]
Details | w1 = 0.1 | w1 = 0.2 | w1 = 0.3 | w1 = 0.4 | w1 = 0.5 | w1 = 0.6 | w1 = 0.7 | w1 = 0.8 | w1 = 0.9 | w1 = 1
293.15 K | 992.9 | 989.7 | 986.6 | 981.7 | 975.1 | 962.4 | 948.3 | 933.1 | 910.9 | 886.7
298.15 K | 991.5 | 987.7 | 983.9 | 978.3 | 971.4 | 958.5 | 944.3 | 929.2 | 907.1 | 883
303.15 K | 989.8 | 985.5 | 980.9 | 974.9 | 967.6 | 954.6 | 940.2 | 925.2 | 903.2 | 879.1
308.15 K | 987.9 | 983.1 | 978 | 971.4 | 963.8 | 950.6 | 936.1 | 921.2 | 899.2 | 875.1
313.15 K | 985.9 | 980.4 | 974.8 | 967.8 | 959.9 | 946.5 | 932 | 917.1 | 895.2 | 871.2
318.15 K | 983.6 | 977.3 | 971.6 | 964.2 | 956 | 942.4 | 927.8 | 912.9 | 891.1 | 867.2
323.15 K | 981.2 | 975 | 968.2 | 960.4 | 952.1 | 938.2 | 923.6 | 908.7 | 887 | 863.1
328.15 K | 978.6 | 972 | 964.7 | 956.7 | 948 | 934 | 919.3 | 904.5 | 882.9 | 859.1
333.15 K | 975.9 | 968.9 | 961 | 952.8 | 943.9 | 929.7 | 915 | 900.2 | 878.7 | 855
338.15 K | 973.1 | 965.8 | 957.9 | 948.9 | 939.8 | 925.4 | 910.6 | 895.8 | 874.4 | 850.8
343.15 K | 970.1 | 962.5 | 954.2 | 944.9 | 935.6 | 921 | 906.2 | 891.4 | 870.1 | 846.7
